Experiment [1] has as its target recombinant human kinase domain of JAK1 (Homo sapiens (Human), UniProt P23458). Put plainly: JAK Caliper enzyme assay at 1 mM ATP (JAK1).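 Further: microfluidic mobility-shift readout of synthetic fluorescent peptide phosphorylation, percent product converted from peak height, inhibition relative to DMSO-only wells as uninhibited baseline, room temperature incubation.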 It counts as biochemical.
For experiment [2], the target named is recombinant human kinase domain of JAK2 (Homo sapiens (Human), UniProt O60674). Put plainly: JAK Caliper enzyme assay at 1 mM ATP (JAK2).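 Further: microfluidic mobility-shift read-out of fluorescent synthetic peptide phosphorylation, percent product converted from peak heights, room temperature, DMSO-only wells as uninhibited baseline, inhibition curve fit.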 It counts as biochemical.
Experiment [3] concerns the target recombinant human kinase domain of JAK3 (Homo sapiens (Human), UniProt P52333). Put plainly: JAK Caliper enzyme assay at 1 mM ATP (JAK3).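 Further: microfluidic mobility-shift readout of synthetic peptide phosphorylation, percent product converted from peak heights, normalized to DMSO-only wells as uninhibited baseline, room temperature incubation.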 It counts as biochemical.
In experiment [4] the target is recombinant human kinase domain of TYK2 (Homo sapiens (Human), UniProt P29597). In words: JAK Caliper enzyme assay at 1 mM ATP (TYK2).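 Further: microfluidic mobility-shift readout of synthetic peptide phosphorylation by TYK2, tuned to 20–30% conversion at room temperature, reaction stopped with EDTA, DMSO-only wells as uninhibited baseline.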 The settings on record: 1 mM ATP; read-out: IC50 (nM) TYK2. It counts as biochemical.
Experiment [5] concerns interferon alpha signalling (TYK2 and JAK1), STAT3 phosphorylation. Put plainly: Human whole blood INFα induced STAT3 phosphorylation assay.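 Further: flow cytometry with anti-pSTAT3 staining, signal as percent-positive × mean fluorescence, baseline from unstimulated wells, 11-point dilution series, IC50 as inhibition of pSTAT3.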 It counts as cell-based. The following applies: compound 60 minutes at 37° C., IFNα 5000 U/ml for 15 minutes, pSTAT3 in lymphocyte population by flow cytometry, read-out: HWB IFN alpha IC50. A general note: In flow cytometry, cells or beads pass a laser one at a time.

The mark [6] stands for this setting: 1 mM ATP, read-out: IC50 (nM) JAK1.
Setting [7] is: 1 mM ATP, read-out: IC50 (nM) JAK3.

Each structure is given as a SMILES string. Like-named read-outs stand apart in the source and are kept apart here.

recombinant human kinase domain of JAK2, sequence (O60674 849-1124): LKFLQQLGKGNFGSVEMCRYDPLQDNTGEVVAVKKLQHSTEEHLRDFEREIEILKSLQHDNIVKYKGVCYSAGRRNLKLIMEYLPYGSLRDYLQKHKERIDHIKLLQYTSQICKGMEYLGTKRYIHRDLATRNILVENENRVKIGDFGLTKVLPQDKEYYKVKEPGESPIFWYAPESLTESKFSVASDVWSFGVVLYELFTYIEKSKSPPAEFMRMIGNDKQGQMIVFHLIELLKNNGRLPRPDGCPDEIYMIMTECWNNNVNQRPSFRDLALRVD
recombinant human kinase domain of TYK2, sequence (P29597 897-1176): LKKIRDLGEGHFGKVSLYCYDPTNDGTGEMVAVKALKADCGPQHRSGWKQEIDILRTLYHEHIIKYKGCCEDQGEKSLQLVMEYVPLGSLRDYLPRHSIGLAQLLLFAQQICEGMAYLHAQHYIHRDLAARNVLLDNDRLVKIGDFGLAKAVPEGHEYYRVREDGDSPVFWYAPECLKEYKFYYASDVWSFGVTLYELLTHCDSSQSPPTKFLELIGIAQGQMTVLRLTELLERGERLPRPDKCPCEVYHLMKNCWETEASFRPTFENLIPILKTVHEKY
recombinant human kinase domain of JAK3, sequence (P52333 822-1111): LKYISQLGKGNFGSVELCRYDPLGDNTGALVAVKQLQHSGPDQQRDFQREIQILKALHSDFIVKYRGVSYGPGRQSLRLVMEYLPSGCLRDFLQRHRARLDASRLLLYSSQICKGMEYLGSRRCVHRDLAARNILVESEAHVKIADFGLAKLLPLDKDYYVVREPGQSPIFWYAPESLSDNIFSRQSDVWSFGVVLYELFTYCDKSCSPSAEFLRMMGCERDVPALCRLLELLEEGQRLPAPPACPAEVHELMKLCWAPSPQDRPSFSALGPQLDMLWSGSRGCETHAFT
recombinant human kinase domain of JAK1, sequence (P23458 875-1153): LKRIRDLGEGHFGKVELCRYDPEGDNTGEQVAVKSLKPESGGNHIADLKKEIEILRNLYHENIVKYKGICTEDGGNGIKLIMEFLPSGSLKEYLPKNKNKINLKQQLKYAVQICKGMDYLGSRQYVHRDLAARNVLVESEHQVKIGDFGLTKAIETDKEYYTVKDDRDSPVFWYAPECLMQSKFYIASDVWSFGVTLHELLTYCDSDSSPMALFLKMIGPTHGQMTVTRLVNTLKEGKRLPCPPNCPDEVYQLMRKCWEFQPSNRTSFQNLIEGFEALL

Take `Cn1cc(Nc2ncc(F)c(N3C[C@@]4(CO)C[C@@]4(NC(=O)[C@@H]4C[C@H]4C#N)C3)n2)cn1` [Example 110, (1R,2R)-2-cyano-N-[(1S,5S)-3-{5-fluoro-2-[(1-methyl-1H-pyrazol-4-yl)amino]pyrimidin-4-yl}-5-(hydroxymethyl)-3-azabicyclo[3.1.0]hex-1-yl]cyclopropanecarboxamide]: the IC50 (as a rule, the concentration that inhibits the measured activity by half) in experiment [1] (setting [6]) is 29 nM; in experiment [2] it was 455 nM; in experiment [3] (setting [7]), 928 nM; in experiment [4], 58 nM; in experiment [5], 146 nM.
Take `O=C([C@@H]1CC1(F)F)N1[C@@H]2CC[C@H]1CN(c1ccnc(Nc3cnc(N4CC[C@H](O)C4)c(F)c3)n1)C2` [Example 20, [(1S)-2,2-difluorocyclopropyl]{(1R,5S)-3-[2-({5-fluoro-6-[(3S)-3-hydroxypyrrolidin-1-yl]pyridin-3-yl}amino)pyrimidin-4-yl]-3,8-diazabicyclo[3.2.1]oct-8-yl}methanone]: the IC50 in experiment [1] (setting [6]) was 314 nM; in experiment [2] it was 346 nM; in experiment [3] (setting [7]), above 10000 nM; in experiment [4], 58 nM; in experiment [5] it was 458 nM.
Take `CNC(=O)c1ncc(Nc2nccc(N3C[C@H]4CC[C@@H](C3)N4[C@H]3C[C@@H](C#N)C3)n2)cc1C` (single isomer, unassigned) [Example 61]: the IC50 in experiment [1] was determined as 31 nM; in experiment [2], 44 nM; in experiment [3] it was 4080 nM; in experiment [4] it was 18 nM; in experiment [5] it was 135 nM.
In the case of `O=C([C@@H]1CC1(F)F)N1[C@@H]2CC[C@H]1CN(c1ccnc(Nc3cnc(CCO)c(F)c3)n1)C2` [Example 19, [(1S)-2,2-difluorocyclopropyl][(1R,5S)-3-(2-{[5-fluoro-6-(2-hydroxyethyl)pyridin-3-yl]amino}pyrimidin-4-yl)-3,8-diazabicyclo[3.2.1]oct-8-yl]methanone], the IC50 was 463 nM in experiment [1] (setting [6]); 402 nM in experiment [2]; above 10000 nM in experiment [3] (setting [7]); 52 nM in experiment [4]; 238 nM in experiment [5].
In the case of `CNC(=O)c1ncc(Nc2nccc(N3C[C@H]4CC[C@@H](C3)N4C(=O)C3CC3)n2)cc1Cl` [Example 30, 3-chloro-5-({4-[(1R,5S)-8-(cyclopropylcarbonyl)-3,8-diazabicyclo[3.2.1]oct-3-yl]pyrimidin-2-yl}amino)-N-methylpyridine-2-carboxamide], the IC50 in experiment [1] (setting [6]) was 1160 nM; in experiment [2] it was 2130 nM; in experiment [3] (setting [7]), above 10000 nM; in experiment [4], 97 nM; in experiment [5] it was 653 nM.
In the case of `O=C(C1CC1)N1[C@@H]2CC[C@H]1CN(c1ccnc(Nc3cn[nH]c3)n1)C2` [Example 49, cyclopropyl{(1R,5S)-3-[2-(1H-pyrazol-4-ylamino)pyrimidin-4-yl]-3,8-diazabicyclo[3.2.1]oct-8-yl}methanone], the IC50 was 77 nM in experiment [1] (setting [6]); 614 nM in experiment [2]; above 10000 nM in experiment [3] (setting [7]); 49 nM in experiment [4]; 85 nM in experiment [5].
As for `N#CCCN1[C@@H]2CC[C@H]1CN(c1ccnc(Nc3cn[nH]c3)n1)C2` [Example 79, 3-{(1R,5S)-3-[2-(1H-pyrazol-4-ylamino)pyrimidin-4-yl]-3,8-diazabicyclo[3.2.1]oct-8-yl}propanenitrile], the half-maximal inhibitory concentration (IC50) stood at 38 nM in experiment [1] (setting [6]); 406 nM in experiment [2]; 8420 nM in experiment [3] (setting [7]); 34 nM in experiment [4]; 65 nM in experiment [5].
The matching figures for `O=C([C@@H]1CC1(F)F)N1[C@@H]2CC[C@H]1CN(c1ccnc(Nc3cnc(N4CC(O)C4)c(F)c3)n1)C2` [Example 22, [(1S)-2,2-difluorocyclopropyl][(1R,5S)-3-(2-{[5-fluoro-6-(3-hydroxyazetidin-1-yl)pyridin-3-yl]amino}pyrimidin-4-yl)-3,8-diazabicyclo[3.2.1]oct-8-yl]methanone]: 490 nM, 312 nM, above 10000 nM, 55 nM and 410 nM.

Values taken from patent US9663526B2, “Aminopyrimidinyl compounds” (Pfizer Inc., priority 2014, dated 2017).
